Data reported in patent US8563714B2, “Bridged spiro [2.4] heptane derivatives as ALX receptor and/or FPRL2 agonists” (Actelion Pharmaceuticals Ltd., priority 2009, dated 2013).

Tests used:
[1] = molecular target: T1, human ALX receptor (Homo sapiens, UniProt P25090); assay: Intracellular calcium measurements (FLIPR), agonistic activity in HEK293-hALXR-Gα16 cells; format: cell-based; settings: Fluo-4 calcium FLIPR, normalized to WKYMVm 10 nM
T1 construct: expressed in transfected cells; host or cells: HEK293 (HEK293-hALXR-Gα16)
T1 sequence (P25090 1-351): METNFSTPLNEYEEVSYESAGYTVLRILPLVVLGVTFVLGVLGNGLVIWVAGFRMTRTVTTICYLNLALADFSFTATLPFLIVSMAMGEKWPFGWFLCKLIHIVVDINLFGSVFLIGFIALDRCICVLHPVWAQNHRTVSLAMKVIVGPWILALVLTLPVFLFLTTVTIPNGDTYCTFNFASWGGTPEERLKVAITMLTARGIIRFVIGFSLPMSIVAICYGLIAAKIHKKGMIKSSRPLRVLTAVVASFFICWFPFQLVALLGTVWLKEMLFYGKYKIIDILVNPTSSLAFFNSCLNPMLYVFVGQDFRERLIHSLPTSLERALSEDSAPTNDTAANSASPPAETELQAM
Protocol: (§1) The ALX receptor and FPRL2 agonistic activities of the compounds of formula (I) are determined in accordance with the following experimental method.
(§2) Intracellular Calcium Measurements:
Cells expressing recombinant human ALX receptor and the G-protein Gα16 (HEK293-hALXR-Gα16) were grown to 80% confluency in Growing Medium (GM). Cells were detached from culture dishes with a cell dissociation buffer (Invitrogen, 13151-014), and collected by centrifugation at 1,000 rpm at rt for 5 min in Assay Buffer (AB) (equal parts of Hank's BSS (Gibco, 14065-049) and DMEM without Phenol Red (Gibco, 11880-028)). After 60 min incubation at 37° C. under 5% CO2 in AB supplemented with 1 μM Fluo-4 (AM) (Invitrogen, F14202), and 20 mM HEPES (Gibco, 15630-056), the cells were washed and resuspended in AB. They were then seeded onto 384-well FLIPR assay plates (Greiner, 781091) at 50′000 cells in 70 μl per well and sedimented by centrifugation at 1,000 rpm for 1 min. Stock solutions of test compounds were made up at a concentration of 10 mM in DMSO, and serially diluted in AB to concentrations required for activation dose response curves. WKYMVm (Phoenix Peptides) was used as a reference agonist. FLIPR384 or FLIPR Tetra instruments (Molecular Devices) were operated according to the manufacturer's standard instructions, adding 4 μl of test compound dissolved at 10 mM in DMSO and diluted prior to the experiment in assay buffer to obtain the desired final concentration. Changes in fluorescence were monitored before and after the addition of test compounds at lex=488 nm and lem=540 nm. Emission peak values above base level after compounds addition were exported after base line subtraction. Values were normalized to high-level control (WKYMVm compound, 10 nM final concentration) after subtraction of the base line value (AB addition).

[2] = molecular target: T2, human FPRL2 (Homo sapiens, UniProt P25089); assay: Intracellular calcium measurements (FLIPR), agonistic activity in HEK293-hFPRL2-Gα16 cells; format: cell-based; settings: Fluo-4 calcium FLIPR, normalized to GLY14-Humanin 100 nM
T2 construct: expressed in transfected cells; host or cells: HEK293 (HEK293-hFPRL2-Gα16)
T2 sequence (P25089 1-353): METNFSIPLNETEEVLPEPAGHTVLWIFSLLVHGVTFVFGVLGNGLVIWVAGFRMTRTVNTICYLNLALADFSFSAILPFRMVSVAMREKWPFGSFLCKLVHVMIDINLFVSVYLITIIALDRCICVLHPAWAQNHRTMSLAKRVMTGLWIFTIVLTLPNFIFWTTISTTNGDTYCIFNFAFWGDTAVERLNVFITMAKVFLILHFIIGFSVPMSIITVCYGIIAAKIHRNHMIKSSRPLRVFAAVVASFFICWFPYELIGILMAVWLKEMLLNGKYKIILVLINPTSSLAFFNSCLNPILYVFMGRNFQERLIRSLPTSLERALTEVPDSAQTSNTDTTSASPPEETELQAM
Protocol: as §1, §2
Cells expressing recombinant human FPRL2 and the G-protein Gα16 (HEK293-hFPRL2-Gα16) were grown to 80% confluency in Growing Medium (GM). […] Stock solutions of test compounds were made up at a concentration of 10 mM in DMSO, and serially diluted in AB to concentrations required for activation dose response curves. Gly14-Humanin (Humanin peptide with replacement of Serine by Glycine at position 14, Phoenix Peptides) was used as a reference agonist. FLIPR384 or FLIPR Tetra instruments (Molecular Devices) were operated according to the manufacturer's standard instructions, adding 4 μl of test compound dissolved at 10 mM in DMSO and diluted prior to the experiment in assay buffer to obtain the desired final concentration. Changes in fluorescence were monitored before and after the addition of test compounds at lex=488 nm and lem=540 nm. Emission peak values above base level after compounds addition were exported after base line subtraction. Values were normalized to high-level control (GLY14-Humanin compound, 100 nM final concentration) after subtraction of the base line value (AB addition).

| Structure (SMILES) | EC50 [1] [nM] | EC50 [2] [nM] |
| --- | --- | --- |
| O=C(Nc1ccc(Br)cc1)C1C(C(=O)NC2CCNC2)C2C=CC1C21CC1 (mixture of isomers) [Example 9, (5R*)—N^5-(4-Bromophenyl)-(6R*)—N^6-(pyrrolidin-3-yl)-(4S*,7R*)-[4,7-ethenylene-spiro[2.4]heptane]-5,6-dicarboxamide] | 0.94 | 1510 |
| CC(C)(C)OC(=O)N1CCC(NC(=O)C2C(C(=O)Nc3ccc(Br)cc3)C3C=CC2C32CC2)C1 (mixture of isomers) [Example 14, (5R*)—N^5-(4-Bromophenyl)-(6R*)—N^6-(N-tert-butoxycarbonyl-pyrrolidin-3-yl)-(4S*,7R*)-[4,7-ethenylene-spiro[2.4]heptane]-5,6-dicarboxamide] | 1.2 | 1690 |
| O=C(NCC1CCCN1)C1C(C(=O)Nc2ccc(Br)cc2)C2C=CC1C21CC1 (mixture of isomers) [Example 18, (5R*)—N^5-(4-Bromophenyl)-(6R*)—N^6-(2-pyrrolidinyl-methyl)-(4S*,7R*)-[4,7-ethenylene-spiro[2.4]heptane]-5,6-dicarboxamide] | 2 | 551 |
| O=C(NCC1CCCO1)C1C(C(=O)Nc2ccc(Br)cc2)C2C=CC1C21CC1 (mixture of isomers) [Example 22, (5R*)—N^5-(4-Bromophenyl)-(6R*)—N^6-(2-tetrahydrofuranyl-methyl)-(4S*,7R*)-[4,7-ethenylene-spiro[2.4]heptane]-5,6-dicarboxamide] | 3.2 | 4640 |
| CCN(CC)CCCC(C)NC(=O)C1C(C(=O)Nc2ccc(Br)cc2)C2C=CC1C21CC1 (mixture of isomers) [Example 25, (5R*)—N^5-(4-Bromophenyl)-(6R*)—N^6-(5-(N,N-diethyl-amino)-pent-2-yl)-(4S*,7R*)-[4,7-ethenylene-spiro[2.4]heptane]-5,6-dicarboxamide] | 3.9 | 365 |
| O=C(Nc1ccc(Br)cc1)C1C(C(=O)NC2CCCNC2)C2C=CC1C21CC1 (mixture of isomers) [Example 26, (5R*)—N^5-(4-Bromophenyl)-(6R*)—N^6-(piperidin-3-yl)-(4S*,7R*)-[4,7-ethenylene-spiro[2.4]heptane]-5,6-dicarboxamide] | 4.2 | 744 |
| CC(CO)NC(=O)C1C(C(=O)Nc2ccc(Br)cc2)C2C=CC1C21CC1 (mixture of isomers) [Example 28, (5R*)—N^5-(4-Bromophenyl)-(6R*)—N^6-(1-hydroxy-prop-2-yl)-(4S*,7R*)-[4,7-ethenylene-spiro[2.4]heptane]-5,6-dicarboxamide] | 4.5 | > 25000 |
| CN1CCCC1CCNC(=O)C1C(C(=O)Nc2ccc(Br)cc2)C2C=CC1C21CC1 (mixture of isomers) [Example 33, (5R*)—N^5-(4-Bromophenyl)-(6R*)—N^6-(2-(1-methyl-pyrrolidin-2-yl)-ethyl)-(4S*,7R*)-[4,7-ethenylene-spiro[2.4]heptane]-5,6-dicarboxamide] | 5.8 | 4100 |
| O=C(NCC1COCCO1)C1C(C(=O)Nc2ccc(Br)cc2)C2C=CC1C21CC1 (mixture of isomers) [Example 41, (5R*)—N^5-(4-Bromophenyl)-(6R*)—N^6-([1,4]-dioxan-2-yl-methyl)-(4S*,7R*)-[4,7-ethenylene-spiro[2.4]heptane]-5,6-dicarboxamide] | 9.5 | 8510 |
| CCN1CCCC1CNC(=O)C1C(C(=O)Nc2ccc(Br)cc2)C2C=CC1C21CC1 (mixture of isomers) [Example 54, (5R*)—N^5-(4-Bromophenyl)-(6R*)—N^6-[(1-ethyl-pyrrolidin-2-yl)-methyl]-(4S*,7R*)-[4,7-ethenylene-spiro[2.4]heptane]-5,6-dicarboxamide] | 16 | 2590 |
| CC(C)(C)OC(=O)N1CCCC(NC(=O)C2C(C(=O)Nc3ccc(Br)cc3)C3C=CC2C32CC2)C1 (mixture of isomers) [Example 56, (5R*)—N^5-(4-Bromophenyl)-(6R*)—N^6-(N-tert-butoxycarbonyl-piperidin-3-yl)-(4S*,7R*)-[4,7-ethenylene-spiro[2.4]heptane]-5,6-dicarboxamide] | 18 | 1750 |
| CC(C)CC(CO)NC(=O)C1C(C(=O)Nc2ccc(Br)cc2)C2C=CC1C21CC1 (mixture of isomers) [Example 59, (5R*)—N^5-(4-Bromophenyl)-(6R*)—N^6-[(2S)-1-hydroxy-4-methyl-pent-2-yl]-(4S*,7R*)-[4,7-ethenylene-spiro[2.4]heptane]-5,6-dicarboxamide] | 21 | 8280 |
| CC(NC(=O)C1C(C(=O)Nc2ccc(Br)cc2)C2C=CC1C21CC1)C(N)=O (mixture of isomers) [Example 65, (5R*)—N^5-(4-Bromophenyl)-(6R*)—N^6-[(1S)-1-carbamoyl-ethyl]-(4S*,7R*)-[4,7-ethenylene-spiro[2.4]heptane]-5,6-dicarboxamide] | 26 | > 25000 |
| O=C(NCC(c1ccccc1)N1CCOCC1)C1C(C(=O)Nc2ccc(Br)cc2)C2C=CC1C21CC1 (mixture of isomers) [Example 77, (5R*)—N^5-(4-Bromophenyl)-(6R*)—N^6-(2-phenyl-2-morpholino-ethyl)-(4S*,7R*)-[4,7-ethenylene-spiro[2.4]heptane]-5,6-dicarboxamide] | 80 | 2280 |
| CC(C)(C)OC(=O)N1CCCC1CNC(=O)C1C(C(=O)Nc2ccc(Br)cc2)C2C=CC1C21CC1 (mixture of isomers) [Example 79, (5R*)—N^5-(4-Bromophenyl)-(6R*)—N^6—(N-tert-butoxycarbonyl-pyrrolidin-2-yl-methyl)-(4S*,7R*)-[4,7-ethenylene-spiro[2.4]heptane]-5,6-dicarboxamide] | 96 | 1300 |
| NC(=O)C1CCCCC1NC(=O)C1C(C(=O)Nc2ccc(Br)cc2)C2C=CC1C21CC1 (mixture of isomers) [Example 81, (5R*)—N^5-(4-Bromophenyl)-(6R*)—N^6-(2-carbamoyl-cyclohexyl)-(4S*,7R*)-[4,7-ethenylene-spiro[2.4]heptane]-5,6-dicarboxamide] | 100 | 8730 |
| CC(NC(=O)C1C(C(=O)Nc2ccc(Br)cc2)C2C=CC1C21CC1)C(=O)N1CCCCC1 (mixture of isomers) [Example 82, (5R*)—N^5-(4-Bromophenyl)-(6R*)—N^6-(1-piperidin-1-yl-propan-1-on-2-yl)-(4S*,7R*)-[4,7-ethenylene-spiro[2.4]heptane]-5,6-dicarboxamide] | 118 | 6590 |
| NC(=O)C(Cc1ccccc1)NC(=O)C1C(C(=O)Nc2ccc(Br)cc2)C2C=CC1C21CC1 (mixture of isomers) [Example 95, (5R*)—N^5-(4-Bromophenyl)-(6R*)—N^6-[(1S)-1-carbamoyl-2-phenyl-ethyl]-(4S*,7R*)-[4,7-ethenylene-spiro[2.4]heptane]-5,6-dicarboxamide] | 223 | 1850 |
